In assay [1] the test system is Gαq protein in HEK293T cells (pcDNA3.1). Briefly: Gαq protein activation BRET2 assay in control HEK293T cells without receptor (pcDNA3.1 / 0 μg). The settings on record: pcDNA3.1, ADP 10 μM, 1 min, individual experiments. The format is cell-based, Human. From the text: As previously described, using a BRET^2 (bioluminescence resonance energy transfer)-based assay, we directly monitored the basal Gαq protein activation by measuring the interaction between Gαq and Gγ2 subunits of the Gαqβ1γ2 heterotrimer complex. Indeed, this assay is based on the non-radiative transfer between the Renilla reniformis luciferase (RLuc8) energy donor fused to the Gαq protein subunit and the fluorescent GFP2 energy acceptor fused to Gγ2 protein subunit (Fig. 1a). […] By contrast, ligand-independent constitutive receptor activation or agonist-induced receptor activation will promote Gαq/Gγ2 subunit dissociation, thereby leading to a decrease of the basal BRET signal (Fig. 1a). […] To preclude any P2Y1-R activation by a passive release of ADP by HEK293T cells, we performed similar experiments in the presence of high concentration of apyrase (0.2U/mL) to degrade any trace of ADP in the medium (Additional File 2: Fig. S2a). Under these conditions, P2Y1-R expression still induces a marked and significant decrease of the basal BRET signal compared to control cells (pcDNA3.1), thereby supporting a P2Y1-R-dependent constitutive activation of Gαq protein. […] Of note, because P2Y1-R and AT1-R were respectively Myc- and HA-tagged and were thus detected using different primary antibodies, their expression at the cell surface cannot be compared between each other’s.
G protein activation and β-arrestin 2 recruitment were performed as previously described. […] BRET signal between RLuc8 and GFP2 was measured after addition of the luciferase substrate coelenterazine 400a (5 μM). […] BRET signal was recorded after incubation with coelenterazine h (5 μM) for 8 min. For kinetics studies, BRET signal between RLuc and Venus was recorded at 20-s intervals at basal state for the 2 first minutes and then for 5 min after ligand injection. For saturation curves (BRET^1), the expression level of Venus- or RLuc-tagged protein was determined by direct measurement of total fluorescence and luminescence respectively. Total fluorescence was first measured with an excitation filter at 485 nm and an emission filter at 520 nm. Then, the same sample was incubated for 8 minutes with 5 μM coelenterazine h and the total luminescence was measured. BRET^2 and BRET^1 readings were collected using a modified Infinite F500 (Tecan Group Ltd). The BRET^2 signal was calculated by the ratio of emission of GFP2 (510–540 nm) to RLuc8 (370–450 nm) and the BRET^1 signal by the ratio of emission of Venus (520–570 nm) to RLuc (370–480 nm). Sometimes, results are expressed as the Net BRET computed by deducting the BRET background signal (obtained in the presence of the energy donor alone) from the BRET signal (acquired from cells expressing both the energy donor and acceptor).

The target of a further assay is T1, Human P2Y12-R (Homo sapiens, UniProt Q9H244).
T1 construct: expressed in transfected cells; host or cells: HEK293T/17
T1 sequence (Q9H244 whole entry): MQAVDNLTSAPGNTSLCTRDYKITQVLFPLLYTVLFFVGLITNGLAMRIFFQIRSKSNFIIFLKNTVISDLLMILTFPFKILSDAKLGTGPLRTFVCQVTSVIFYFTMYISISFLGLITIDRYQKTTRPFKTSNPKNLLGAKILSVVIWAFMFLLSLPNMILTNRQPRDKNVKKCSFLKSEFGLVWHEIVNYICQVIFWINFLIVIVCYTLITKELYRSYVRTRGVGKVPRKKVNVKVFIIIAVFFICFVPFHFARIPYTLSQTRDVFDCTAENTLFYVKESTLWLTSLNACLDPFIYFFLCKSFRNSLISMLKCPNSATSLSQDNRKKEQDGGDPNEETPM
Nature of the assay: β-arrestin 2 recruitment BRET1 assay (β-arrestin 2-RLuc / P2Y12-R-Venus) in HEK293T cells. To be noted: 10 μM, 5 min, result in words. The format is cell-based. From the text: We assessed β-arrestin 2 recruitment to the receptor using BRET^1 assay. The assay measures the interaction between β-arrestin 2 fused to the Renilla reniformis luciferase (RLuc) energy donor and the receptor fused to fluorescent Venus energy acceptor (Fig. 3a). The recruitment of cytosolic β-arrestin 2 to the receptor at the plasma membrane in the presence of an agonist will promote a significant increase of the BRET signal compared to the basal state, reflecting the close proximity between the β-arrestin 2 energy donor and the receptor energy acceptor [22]. […]
G protein activation and β-arrestin 2 recruitment were performed as previously described. […] BRET signal between RLuc8 and GFP2 was measured after addition of the luciferase substrate coelenterazine 400a (5 μM). […] BRET signal was recorded after incubation with coelenterazine h (5 μM) for 8 min. For kinetics studies, BRET signal between RLuc and Venus was recorded at 20-s intervals at basal state for the 2 first minutes and then for 5 min after ligand injection. For saturation curves (BRET^1), the expression level of Venus- or RLuc-tagged protein was determined by direct measurement of total fluorescence and luminescence respectively. Total fluorescence was first measured with an excitation filter at 485 nm and an emission filter at 520 nm. […] BRET^2 and BRET^1 readings were collected using a modified Infinite F500 (Tecan Group Ltd). […]

The subject of a further assay is HEK293T cells (pcDNA3.1). Briefly: IP1 accumulation assay (HTRF) in control HEK293T cells (pcDNA3.1). The format is cell-based, Human. To be noted: pcDNA3.1, MRS2179 10 μM, 2 h. From the text:
Since Gαq protein activation is known to induce PLC activation leading to IP3 and subsequent cytosolic calcium release, we analyzed the constitutive Gαq-dependent P2Y1-R signaling by quantifying intracellular inositol monophosphate (IP1) using a monoclonal antibody-based competitive ELISA. IP1 is a downstream metabolite of IP3 that accumulates in cells following Gαq protein-coupled receptor activation, making it an ideal readout for Gαq protein-dependent signaling pathways.
Quantification of intracellular IP1 was performed using the HTRF (Homogeneous Time Resolved Fluorescence) IP1 competitive immunoassay (IP-One Tb kit. Cisbio. France) according to the manufacturer’s instructions. Briefly, 20,000 HEK293T/17 cells or 3.10^6 platelets were distributed in a 384-well white microplate (Greiner) and incubated with the indicated molecules for 30 min or 2 h at 37 °C in the presence of 50 mM of LiCl to prevent IP1 degradation. After addition of d2-labeled IP1 (acceptor) and anti-IP1-Cryptate (donor) for 1 h, the specific FRET signals were calculated by the fluorescence ratio of the acceptor and donor emission signal (665/620 nm) collected using a modified Infinite F500 (Tecan Group Ltd). Conversion of the HTRF ratio of each sample into IP1 concentrations was performed on the basis of a standard curve to determine the linear dynamic range of the assay.

For a further assay, the system named is P2Y1-R. Further details: method as in PMID 29724785. To be noted: Alzheimer's disease mouse model, result in words; cited from earlier work.

Consider two compounds from PMC9890698 (BMC Biology, 2023).

Several values for one entry are separate records, joined by “and”; a condition that tells them apart may be missing. Identical values can stand only once.

For the compound `Nc1ncnc2c1ncn2[C@@H]1O[C@H](COP(=O)(O)OP(=O)(O)O)[C@@H](O)[C@H]1O` [ADP, adenosine diphosphate], in assay [1], the “ADP-modulated BRET” value is -0.02779 and 0.00353 and 0.02201 and 0.01275 and 0.006152 and -0.007154. On Human P2Y12-R, the “Effect on β-arrestin 2 recruitment” value was “did not trigger β-arrestin 2 recruitment”.

As to `CNc1ncnc2c1ncn2[C@H]1C[C@H](OP(=O)(O)O)[C@@H](COP(=O)(O)O)O1` [MRS2179], in the assay with HEK293T cells (pcDNA3.1), the “IP1 concentration” value is 88.9223 nM and 110.299 nM and 105.967 nM and 93.0408 nM and 138.708 nM. Moreover, the “Effect on network homeostasis, spatial learning and memory” value in the assay with P2Y1-R was “restored network homeostasis and protected from the decline of spatial learning and memory”.
